According to patent US20120042398A1, “COMPOSITIONS FOR LABELING AND IDENTIFYING AUTOPHAGOSOMES AND METHODS FOR MAKING AND USING THEM” (SAN DIEGO STATE UNIVERSITY (SDSU) FOUNDATION, priority 2008, published 2012):
Each block holds one molecule with its values, some of them ahead of it.

Experiments:
[1] = tested on: autophagic vesicles (AV) in fat body tissue; experiment: Staining of fresh Drosophila larval fat body tissue (AV labeling); type: cell-based; settings: 10 μM dye, 10 min
Method: Staining of Drosophila Tissues. To perform a rapid first-pass examination of the compounds ability to stain AV we examined fat body tissues from wandering 3rd instar Drosophila larvae. 1 mM DMSO stock solutions were prepared for each compound and stored at −20° C. Fat body tissue from wild type fly larvae were dissected from the surrounding cuticle and organs, and placed in 1 ml iced PBS solution. Tissues were immediately stained for 10 min, in a final 10 μM concentration for each dye. Samples were rinsed twice with 1×PBS, mounted with VECTASHIELD™ (Vector Laboratories, Inc, Burlingame, Calif.) and immediately imaged using a scanning confocal fluorescent microscope (Leica, FITC channel). As a positive control, fly tissues (3rd instar) were also stained with BODIPY-TexasRed-cadaverine (Invitrogen, red).

HL-1 cells = experiment: High-throughput cadaverine plate-reader assay of autophagy (ALEXAFLUOR488-cadaverine fluorescence); type: cell-based, Mouse; settings: FIG. 1
Method: For 24 Well Plates: • Plate 75,000 cells per well • Wait for cells to achieve approximately 80% confluence (approximately 1 day) • Treat cells (3 h 30 min starvation, 3 mL of medium) • Rinse cells with PBS (1 ml) • Incubate cells with probe for 10 minutes at 37° C. • Wash cells four times with PBS (1 mL) • Lyse cells by incubating in 10 mM Tris-Cl pH 8 containing 0.1% Triton X-100 for 20 minutes (500 uL) • Measure fluorescence in plate reader • Add ethidium bromide to a final concentration of 0.2 mM and measure fluorescence (exc=530 nm; em=590 nm) • Normalize results to the number of cells (ethidium bromide reading)
Probes: • ALEXAFLUOR488™ cadaverine (A30676, Invitrogen, Carlsbad, Calif.) • Final concentration 25 uM, exc=493 nm; em=516 nm. • BODIPY TR™ cadaverine (D6251, Invitrogen, Carlsbad, Calif.) • Final concentration 125 nM, exc=588 nm; em=616 nm.

[2] = tested on: autophagic vesicles in Atg1-/- fat body tissue; experiment: FITC-TG / LYSOTRACKER staining of Atg1-/- mutant fat body tissue; type: cell-based, Drosophila; settings: starvation and hormone-dependent induction
Method: These studies indicates the FITC-dyes highlight a population of vesicles that are distinct from LYSOTRACKER™ and could be used to study the early in vivo formation, maturation and fusion events of AV within cells. To further confirm the specificity of the FITC-TG AV staining, fat body tissue was prepared from Atg1−/− larvae and compared with wild type controls. Signaling of the Atg1 protein kinase is essential for pathway induction and AV formation, see e.g., (21, 57). In Drosophila loss-of-function mutations in this gene result in late pupal lethality but have a minor impairment on early development, thus providing sufficient material for imaging studies. […] This staining pattern is consistent with lysosomes maturing from the endosomal pathway but AV failing to be formed under normal physiological conditions. FIG. 8 illustrates images of stained tissues from: Fed (left column images), fasted (middle column images) and hormone-induced (“3rd instar” right column images) autophagy profiles in wildtype (upper row images) and Atg1−/− mutant (lower row images) cells. Fat body tissue from larvae that were fed, fasted or undergoing hormone-induced autophagy were collected and stained with LYSOTRACKER™ (red) and the exemplary FITC-TG (green). […] While LYSOTRACKER™ puncta are detected (red) in these Atg1^−/− mutant tissues, the exemplary FITC-TG dye fails to stain autophagosomes or autolysosomes.

[3] = Fluorophore properties (pKa, pH stability, photostability, storage stability); type: physicochemical; settings: for photostability / photobleaching: normal fluorescence exposure
[4] = tested on: mCherry-LC3 puncta (autophagosomes) in heart; experiment: MDC labeling of cardiac tissue in mCherry-LC3 mice; type: in vivo; settings: MDC 1.5 mg/kg i.p. 1 hr before sacrifice, heart sections
Method: To examine its labeling profile in cardiac tissues, mCherry-LC3 mice were injected with MDC (1.5 mg/kg i.p.) 1 hr before being sacrificed, e.g., see Iwai-Kanai (2008) supra, Yitzhaki (2009) Basic Res. Cardiol. 104:157-167. Hearts were collected and frozen tissues sections prepared for imaging. Under conditions where autophagy is activated and mCherry-LC3 puncta formed, MDC-labeled structures were similarly up regulated, see FIG. 4, and see e.g. Iwai-Kanai (2008) supra. MDC labeled a subset of mCherry-LC3-positive structures, presumably fused autolysosome vesicles.
FIG. 4 illustrates three images, including mCherry and MDC labeling of vesicles. mCherry-LC3 expressing mice were treated with rapamycin and hearts prepared for fluorescent imaging. […] The right image of FIG. 4 is a merge of the mCherry-LC3 and MDC images.

autophagic vesicles (AV) = experiment: MDC staining of AV in cell or tissue preparations; type: cell-based
Description: Initial synthesis of autophagic specific dyes of this invention was based on MDC. […] In alternative embodiments, dyes used in compositions of this invention are vesicle selective, have multiple fluorescent excitation/emission spectra and can be used for several imaging applications. Thus, the new dyes of this invention will greatly benefit autophagy research.

[5] = cited from earlier work
[6] = tested on: autophagosomes in heart tissue; experiment: Heart perfusion with BODIPY-TR-cadaverine, dye incorporation into autophagosomes read in plate reader; settings: perfused hearts, FIG. 2
Method: 1) Mince 1-5 mm^3 tissue sample in 1-2 mL homogenization buffer in 35 mm dish 2) Polytron at ½ speed, 5 sec, on ice in 15 mL round bottom polypropylene tube 3) Spin out nuclei and heavy membranes @ 1000 g, 5 min, 4° C. in 15 mL Falcon tube 4) Move post-nuclear supernatant into 1.5 mL Eppendorf tube 5) Add MDC (or Cadaverine 488) to final concentration of 25 μM 6) Incubate on ice 10 min protected from light 7) Spin sample 20,000×g, 20 min, 4° C. 8) Aspirate supernatant and rinse off pellet with 1 mL cold resuspension buffer 2×'s 9) Resuspend pellet in 350 μL resuspension buffer until mixed evenly 10) Add 100 μL per well in triplicate to black 96-well plate 11) Read on Fluorescence plate reader @ excitation/emission 495 nm/519 nm 12) Use remaining sample to run Bradford assay to quantify protein concentration.
The hearts were perfused with BODIPY-TR™-cadaverine followed by washout, then homogenized and fluorescence read in plate reader. […] FIG. 2 right image is a graph illustrating quantitation of dye incorporation into autophagosomes, with the left column graphically quantitating the upper left image's fluorescence and the right column graphically quantitating the lower left image's (the Tat-Atg5(K130R)-inhibited) fluorescence.

Compound: Cl.NCCCCCNC(=O)COc1ccc(C2=[N+]3C(=Cc4ccc(-c5cccs5)n4[B-]3(F)F)C=C2)cc1 [BODIPY-cadaverine, 5-(((4-(4,4-difluoro-5-(2-thienyl)-4-bora-3a,4a-diaza-s-indacene-3-yl)phenoxy)acetyl)amino)pentylamine, hydrochloride]
staining of intracellular vesicles / cytoplasmic puncta in fresh tissue [1]: robust staining pattern

Compound: CO/C1=C\C(C)=C\[C@@H](C)[C@@H](O)[C@@H](C)C/C(C)=C/C=C/[C@H](OC)[C@@H]([C@@H](C)[C@@H](O)[C@H](C)[C@@]2(O)C[C@@H](O)[C@H](C)[C@@H](C(C)C)O2)OC1=O [Bafilomycin A1]
effect on starvation-increased autophagy (relative ALEXAFLUOR488-cadaverine fluorescence normalized to cell number) (HL-1 cells): partially blocked

Compound: CN(C)CCNC(=O)CCc1ccc2n1[B-](F)(F)[N+]1=C(c3ccc[nH]3)C=CC1=C2 [LYSOTRACKER™]
vesicle staining in Atg1-/- flies [2]: some LYSOTRACKER™ positive staining

stability during storage [3]: stability issues during storage
photostability / photobleaching [3]: significant photobleaching
Compound: CN(C)c1cccc2c(S(=O)(=O)NCCCCCN)cccc12 [MDC, monodansylcadaverine]
co-localization of MDC labeling with mCherry-LC3 puncta [4]: excellent co-localization
usability on fixed samples (autophagic vesicles (AV)): cannot be used on fixed samples

photostability / photobleaching [3]: excellent photostability
Compound: O=C1OC2(c3cc(F)c(O)cc3Oc3cc(O)c(F)cc32)c2ccccc21 [Oregon Green 488, Difluoro-fluorescein]
pKa [5]: 4.7

Compound: Nc1ccc(S(=O)(=O)Nc2ccnn2-c2ccccc2)cc1 [Sulfaphenazole]
effect on autophagy (BODIPY-TR-cadaverine incorporation into autophagosomes) [6]: potent inducer of autophagy

Compound: CCN(CC)CCCC(C)Nc1ccnc2cc(Cl)ccc12 (centres unmarked) [chloroquine]
effect on starvation-increased autophagy (relative ALEXAFLUOR488-cadaverine fluorescence normalized to cell number) (HL-1 cells): partially blocked
